# Measurements: ChEMBL document CHEMBL6103641, “Palladium-Catalyzed Late-Stage Functionalization of Natural Antitumor Drug: Synthesis and Bioactivity of 5-Aryl Camptothecins” (J Nat Prod, 2025)
# Calls of active or inactive are those of the source. The calls are words filed in the database; no cut-off is given here.
# How the values were obtained:
# MCF7 [1] = experiment: Cytotoxicity against human MCF7 cells assessed as inhibition of cell viability incubated for 24 hrs by MTT assay; type: functional, cell-based; details: MCF7, 24 h
# HCT-116 [2] = experiment: Cytotoxicity against human HCT-116 cells assessed as inhibition of cell viability incubated for 24 hrs by MTT assay; type: functional, cell-based; details: HCT-116, 24 h
# A549 = experiment: Cytotoxicity against human A549 cells assessed as inhibition of cell viability incubated for 24 hrs by MTT assay; type: functional, cell-based; details: A549, 24 h
# HCT-116 [3] = experiment: Induction of cell cycle arrest in human HCT-116 cells assessed as accumulation at G2/M phase at 0.25 to 2 uM incubated for 24 hrs by PI staining based flow cytometry; type: functional; details: dose 0.25-2 µM
# HCT-116 [4] = experiment: Induction of apoptosis in human HCT-116 cells assessed as upregulation of cleaved caspase-3 expression at 0.25 to 2 uM incubated for 24 hrs by western blot analysis; type: functional, cell-based; details: dose 0.25-2 µM
# HCT-116 [5] = experiment: Antiproliferative activity against human HCT-116 cells assessed as inhibition of colony growth at 2 uM incubated for 24 hrs by crystal violet staining based analysis; type: functional, cell-based
# HCT-116 [6] = experiment: Induction of apoptosis in human HCT-116 cells assessed as upregulation of Bax expression at 0.25 to 2 uM incubated for 24 hrs by western blot analysis; type: functional, cell-based; details: dose 0.25-2 µM
# HCT-116 [7] = experiment: Induction of apoptosis in human HCT-116 cells assessed as downregulation of Bcl-2 expression at 0.25 to 2 uM incubated for 24 hrs by western blot analysis; type: functional, cell-based; details: dose 0.25-2 µM
# HCT-116 [8] = experiment: Antiproliferative activity against human HCT-116 cells assessed as inhibition of colony growth incubated for 24 hrs by crystal violet staining based analysis; type: functional, cell-based; details: dose 0.25-2 µM
# HCT-116 [9] = experiment: Induction of apoptosis in human HCT-116 cells at 2 uM incubated for 24 hrs by Annexin V-FITC/PI staining based flow cytometric analysis; type: functional, cell-based
# MCF7 [10] = experiment: Induction of apoptosis in human MCF7 cells at 2 uM incubated for 24 hrs by Annexin V-FITC/PI staining based flow cytometric analysis; type: functional, cell-based
# MCF7 [11] = experiment: Antiproliferative activity against human MCF7 cells assessed as inhibition of colony growth at 2 uM incubated for 24 hrs by crystal violet staining based analysis; type: functional, cell-based
# MCF7 [12] = experiment: Antiproliferative activity against human MCF7 cells assessed as inhibition of colony growth incubated for 24 hrs by crystal violet staining based analysis; type: functional, cell-based; details: dose 0.25-2 µM
# MCF7 [13] = experiment: Induction of cell cycle arrest in human MCF7 cells assessed as accumulation at G2/M phase at 0.25 to 2 uM incubated for 24 hrs by PI staining based flow cytometry; type: functional; details: dose 0.25-2 µM
SMILES,IC50 (MCF7 [1]) [µM],IC50 (HCT-116 [2]) [µM],IC50 (A549) [µM],further results
CC[C@@]1(O)C(=O)OCc2c1cc1n(c2=O)[C@@H](c2ccc(F)cc2)c2cc3ccccc3nc2-1,0.1,> 10,> 10,–
CC[C@@]1(O)C(=O)OCc2c1cc1n(c2=O)[C@H](c2cccc(C(F)(F)F)c2)c2cc3ccccc3nc2-1,0.07,1.2,> 10,–
CC[C@@]1(O)C(=O)OCc2c1cc1n(c2=O)[C@H](c2cccc(OC)c2)c2cc3ccccc3nc2-1,> 10,> 10,0.2,–
CC[C@@]1(O)C(=O)OCc2c1cc1n(c2=O)[C@@H](CC=C(C)C)c2cc3ccccc3nc2-1,0.06,0.5,0.02,–
CC[C@@]1(O)C(=O)OCc2c1cc1n(c2=O)[C@H](c2ccc(-c3cccc4ccccc34)cc2)c2cc3ccccc3nc2-1,1.1,0.7,> 10,–
CC[C@@]1(O)C(=O)OCc2c1cc1n(c2=O)[C@@H](c2cccc(C(F)(F)F)c2)c2cc3ccccc3nc2-1,> 10,> 10,> 10,–
CC[C@@]1(O)C(=O)OCc2c1cc1n(c2=O)[C@@H](c2ccccc2Cl)c2cc3ccccc3nc2-1,0.1,> 10,> 10,–
C=Cc1ccc([C@@H]2c3cc4ccccc4nc3-c3cc4c(c(=O)n32)COC(=O)[C@]4(O)CC)cc1,0.1,0.9,> 10,–
CC[C@@]1(O)C(=O)OCc2c1cc1n(c2=O)[C@@H](c2ccc3c(c2)OCO3)c2cc3ccccc3nc2-1,> 10,> 10,0.5,–
CC[C@@]1(O)C(=O)OCc2c1cc1n(c2=O)[C@@H](c2c(OC)cccc2OC)c2cc3ccccc3nc2-1,0.4,0.05,> 10,Activity (HCT-116 [3]): Active; Activity (HCT-116 [4]): Active; Activity (HCT-116 [5]): Active; Superior Activity Compared To Camptothecin Observed; Activity (HCT-116 [6]): Active; Activity (HCT-116 [7]): Active; Activity (HCT-116 [8]): Dose-dependent-effect; Activity (HCT-116 [9]): Active; Superior Activity Compared To Camptothecin Observed
CC[C@@]1(O)C(=O)OCc2c1cc1n(c2=O)[C@@H](c2c(C)cccc2C)c2cc3ccccc3nc2-1,> 10,1.1,> 10,–
CCOC(=O)/C=C/C[C@H]1c2cc3ccccc3nc2-c2cc3c(c(=O)n21)COC(=O)[C@]3(O)CC,> 10,0.4,0.01,–
CC[C@@]1(O)C(=O)OCc2c1cc1n(c2=O)[C@H](c2c(C)cccc2C)c2cc3ccccc3nc2-1,> 10,0.3,> 10,–
CC[C@@]1(O)C(=O)OCc2c1cc1n(c2=O)[C@H](c2ccc(Cl)cc2)c2cc3ccccc3nc2-1,> 10,0.6,> 10,–
CC[C@@]1(O)C(=O)OCc2c1cc1n(c2=O)[C@@H](c2cccc(OC)c2)c2cc3ccccc3nc2-1,> 10,> 10,1.1,–
CC[C@@]1(O)C(=O)OCc2c1cc1n(c2=O)Cc2cc3ccccc3nc2-1 [CAMPTOTHECIN],0.9,0.3,0.3,–
CC[C@@]1(O)C(=O)OCc2c1cc1n(c2=O)[C@@H](c2cc(C)cc(C)c2)c2cc3ccccc3nc2-1,0.16,> 10,> 10,–
CC[C@@]1(O)C(=O)OCc2c1cc1n(c2=O)[C@@H](c2cccc(-c3ccccc3)c2)c2cc3ccccc3nc2-1,> 10,> 10,8.9,–
C=CC[C@H]1c2cc3ccccc3nc2-c2cc3c(c(=O)n21)COC(=O)[C@]3(O)CC,> 10,0.4,> 10,–
CC[C@@]1(O)C(=O)OCc2c1cc1n(c2=O)[C@H](c2cccc(-c3ccccc3)c2)c2cc3ccccc3nc2-1,> 10,> 10,0.9,–
CC[C@@]1(O)C(=O)OCc2c1cc1n(c2=O)[C@H](CC=C(C)C)c2cc3ccccc3nc2-1,0.1,0.6,1.2,–
CC[C@@]1(O)C(=O)OCc2c1cc1n(c2=O)[C@H](c2ccc(F)cc2)c2cc3ccccc3nc2-1,0.1,> 10,0.4,–
CCOC(=O)/C=C/C[C@@H]1c2cc3ccccc3nc2-c2cc3c(c(=O)n21)COC(=O)[C@]3(O)CC,0.4,0.3,0.01,–

SMILES,IC50 (MCF7 [1]) [µM],IC50 (HCT-116 [2]) [µM],IC50 (A549) [µM],further results
CC[C@@]1(O)C(=O)OCc2c1cc1n(c2=O)[C@@H](c2ccc(-c3cccc4ccccc34)cc2)c2cc3ccccc3nc2-1,> 10,> 10,> 10,–
CC[C@@]1(O)C(=O)OCc2c1cc1n(c2=O)[C@H](c2cccc(F)c2C)c2cc3ccccc3nc2-1,> 10,10.4,0.01,–
CC[C@@]1(O)C(=O)OCc2c1cc1n(c2=O)[C@H](c2ccc3ccccc3c2)c2cc3ccccc3nc2-1,> 10,> 10,0.7,–
CC[C@@]1(O)C(=O)OCc2c1cc1n(c2=O)[C@H](c2c(OC)cccc2OC)c2cc3ccccc3nc2-1,0.4,> 10,> 10,–
CC[C@@]1(O)C(=O)OCc2c1cc1n(c2=O)[C@H](c2ccc3c(c2)OCCO3)c2cc3ccccc3nc2-1,> 10,0.08,0.1,–
CC[C@@]1(O)C(=O)OCc2c1cc1n(c2=O)[C@H](c2ccccc2Cl)c2cc3ccccc3nc2-1,0.6,> 10,> 10,–
CCOc1ccc([C@@H]2c3cc4ccccc4nc3-c3cc4c(c(=O)n32)COC(=O)[C@]4(O)CC)cc1,> 10,> 10,0.1,–
CC[C@@]1(O)C(=O)OCc2c1cc1n(c2=O)[C@@H](c2cccc(F)c2C)c2cc3ccccc3nc2-1,> 10,0.9,0.01,–
C=CC[C@@H]1c2cc3ccccc3nc2-c2cc3c(c(=O)n21)COC(=O)[C@]3(O)CC,0.9,0.3,> 10,–
CC[C@@]1(O)C(=O)OCc2c1cc1n(c2=O)[C@H](c2ccc3c(c2)OCO3)c2cc3ccccc3nc2-1,> 10,0.05,0.1,–
CC[C@@]1(O)C(=O)OCc2c1cc1n(c2=O)[C@H](c2ccc(C(C)(C)C)cc2)c2cc3ccccc3nc2-1,> 10,0.2,> 10,–
CC[C@@]1(O)C(=O)OCc2c1cc1n(c2=O)[C@@H](c2ccc(Cl)cc2)c2cc3ccccc3nc2-1,> 10,> 10,> 10,–
CCc1ccc(-c2ccc([C@@H]3c4cc5ccccc5nc4-c4cc5c(c(=O)n43)COC(=O)[C@]5(O)CC)cc2)cc1,> 10,0.2,0.8,–
CC[C@@]1(O)C(=O)OCc2c1cc1n(c2=O)[C@H](c2cccc(CBr)c2)c2cc3ccccc3nc2-1,> 10,9.3,1.1,–
CC[C@@]1(O)C(=O)OCc2c1cc1n(c2=O)[C@@H](c2ccccc2C)c2cc3ccccc3nc2-1,> 10,0.2,> 10,–
CC[C@@]1(O)C(=O)OCc2c1cc1n(c2=O)[C@H](c2ccccc2C(C)C)c2cc3ccccc3nc2-1,9.2,0.1,0.01,–
CC[C@@]1(O)C(=O)OCc2c1cc1n(c2=O)[C@H](c2ccccc2C)c2cc3ccccc3nc2-1,> 10,0.2,> 10,–
CC[C@@]1(O)C(=O)OCc2c1cc1n(c2=O)[C@@H](c2ccccc2F)c2cc3ccccc3nc2-1,> 10,> 10,0.04,–
CCOc1ccc([C@H]2c3cc4ccccc4nc3-c3cc4c(c(=O)n32)COC(=O)[C@]4(O)CC)cc1,> 10,> 10,0.1,–
CC[C@@]1(O)C(=O)OCc2c1cc1n(c2=O)[C@H](c2ccccc2F)c2cc3ccccc3nc2-1,> 10,0.5,0.01,–
CC[C@@]1(O)C(=O)OCc2c1cc1n(c2=O)[C@H](c2cc(C)cc(C)c2)c2cc3ccccc3nc2-1,0.04,> 10,> 10,Activity (MCF7 [10]): Active; Superior Activity Compared To Camptothecin Observed; Activity (MCF7 [11]): Active; Superior Activity Compared To Camptothecin Observed; Activity (MCF7 [12]): Dose-dependent-effect; Activity (MCF7 [13]): Active
C=Cc1ccc([C@H]2c3cc4ccccc4nc3-c3cc4c(c(=O)n32)COC(=O)[C@]4(O)CC)cc1,0.6,0.8,> 10,–
CC[C@@]1(O)C(=O)OCc2c1cc1n(c2=O)[C@@H](c2ccccc2C(C)C)c2cc3ccccc3nc2-1,> 10,0.6,0.01,–
